Test results taken from the OligoGym collection.
Values joined by “and” are separate entries in the source; they are usually repeats but may differ in a detail not shown here. Identical values can stand only once. After the bases stand the sugars from the 5' end (letter, count) and the backbone: PS all phosphorothioate, else s phosphorothioate and o phosphodiester by linkage. Methylation of C is not given here. e = 2'-O-(2-methoxyethyl) (MOE); k = constrained ethyl (cEt); d = 2'-deoxy (DNA)

Target: APOL1
Settings: ASO

| Sequence | target mRNA inhibition (A431, 2 µM) [%] | target mRNA inhibition (A431, 0.0625 µM) | target mRNA inhibition (A431, 0.25 µM) | target mRNA inhibition (A431, 1 µM) | target mRNA inhibition (A431, 0.0156 µM) [%] | target mRNA inhibition (A431, 0.04 µM) [%] |
| --- | --- | --- | --- | --- | --- | --- |
| TGAAGATTGGCTCTGG (sugars kkkddddkekeddddd, PS) | 54 |  |  |  |  |  |
| CTGAAGATTGGCTCTG (sugars k2 d4 e3 k2 d5, PS) | 54 |  |  |  |  |  |
| GTGTGAGTTGGTAAGT (sugars k4 d9 k3, PS) |  | 54% | 85% | 95% |  |  |
| CAGCATTGAGTACAAC (sugars k3 d10 k3, PS) |  | 38% | 58% | 84% |  |  |
| GTGTTATATTTGATCC (sugars kkkddddkekeddddd, PS) | 96 | 66% | 89% | 95% | 24 | 50 |
| GAAGATTGGCTCTGGC (sugars kkddddekekeddddd, PS) | 64 |  |  |  |  |  |
| CGTCAATATATTCTTT (sugars kkdddddkekeddddd, PS) | 87 |  |  |  |  |  |
| ACGCAATGCTGACTTG (sugars kkddddekekeddddd, PS) | 92 | 23% | 59% | 80% | 6 |  |
| GCTTTAAACTCAGGTG (sugars k3 d4 k3 e1 d5, PS) | 74 |  |  |  |  |  |
| GTTCTAACTCTTGGGC (sugars k4 d9 k3, PS) |  | 74% | 85% | 92% |  |  |
| ATTCTCATGGTACAGG (sugars kekddddeekkddddd, PS) | 96 | 37% | 76% | 90% | 0 |  |
| GTTATGAAATTATTGG (sugars kkddddkekekkdddd, PS) | 86 |  |  |  |  |  |
| GCATTCAGAATTTCCA (sugars kkkddddkekeddddd, PS) | 84 |  |  |  |  |  |
| GAAGCTTTAAACTCAG (sugars k2 d4 e3 k2 d5, PS) | 72 |  |  |  |  |  |
| ATATCAGATGGGTACT (sugars kkddddkekekddddd, PS) | 21 |  |  |  |  |  |
| CTAATTTTCTGACTGT (sugars kkdddddkekeddddd, PS) | 98 | 56% | 80% | 93% | 27 |  |
| TTATGGAATTGCAGAT (sugars k4 d9 k3, PS) |  | 38% | 67% | 86% |  |  |
| CCACTTGAGTCATTTG (sugars k4 d9 k3, PS) |  | 40% | 72% | 90% |  |  |
| TTATTCTCATGGTACA (sugars kkkddddkekekdddd, PS) | 53 |  |  |  |  |  |
| GTTATGAAATTATTGG (sugars k4 d9 k3, PS) |  | 58% and 42% | 87% and 73% | 95% and 87% and 97% |  |  |
| GCTAATTTTCTGACTG (sugars kkkddddkekekdddd, PS) | 88 |  |  |  |  |  |
| GTTATATTTGATCCTC (sugars kkkddddkekekdddd, PS) | 66 |  |  |  |  |  |
| AATGTTTGCATTTGGG (sugars k4 d9 k3, PS) |  | 95% | 99% and 97% | 100% and 98% |  |  |
| GAACGCAATGCTGACT (sugars kkddddekekeddddd, PS) | 95 | 40% | 74% | 92% | 19 |  |
| GGCATTCAGAATTTCC (sugars kkddddekekeddddd, PS) | 93 |  |  |  |  |  |
| AAGTATTGCCAGCTAA (sugars kkdddddkekeddddd, PS) | 73 |  |  |  |  |  |
| TGTAAGTGCAACCAAT (sugars k4 d9 k3, PS) |  | 19% | 46% | 78% |  |  |

| Sequence | target mRNA inhibition (A431, 2 µM) [%] | target mRNA inhibition (A431, 0.0625 µM) | target mRNA inhibition (A431, 0.25 µM) | target mRNA inhibition (A431, 1 µM) | target mRNA inhibition (A431, 0.0156 µM) [%] | target mRNA inhibition (A431, 0.04 µM) [%] |
| --- | --- | --- | --- | --- | --- | --- |
| GTTCTAACTCTTGGGC (sugars kkddddkekekkdddd, PS) | 52 |  |  |  |  |  |
| TCAGATGGGTACTTCT (sugars kkdddddkekeddddd, PS) | 89 |  |  |  |  |  |
| CTATTAGAGGGCTAGT (sugars k4 d9 k3, PS) |  | 32% and 19% | 52% and 39% | 71% and 51% |  |  |
| TAAGTATTGCCAGCTA (sugars k3 d4 k3 e1 d5, PS) | 65 |  |  |  |  |  |
| ATTCTATTAGAGGGCT (sugars kkkddddkdkdkdddd, PS) | 78 |  |  |  |  |  |
| GCTTTAAACTCAGGTG (sugars kkkddddkekekdddd, PS) | 68 |  |  |  |  |  |
| CACTTTACATGCACGA (sugars kkddddddddddkeke, PS) |  | 35% | 66% | 87% | 16 |  |
| GCTTTAAACTCAGGTG (sugars kekddddeekkddddd, PS) | 93 |  |  |  |  |  |
| TCATTTGCTAGGTGCC (sugars k4 d9 k3, PS) |  | 43% | 72% | 85% |  |  |
| TGTTATATTTGATCCT (sugars kdddddkekekddddd, PS) | 79 |  |  |  |  |  |
| GCTTTAAACTCAGGTG (sugars kkdddddkekeddddd, PS) | 91 | 35% | 67% | 85% | 6 |  |
| CACATCATTGGGTTAT (sugars kkkddddkekekdddd, PS) | 58 |  |  |  |  |  |
| TGTTCTAACTCTTGGG (sugars k3 d4 k3 e1 d5, PS) | 89 |  |  |  |  |  |
| AGTATTGCCAGCTAAG (sugars kkdddddkekeddddd, PS) | 86 |  |  |  |  |  |
| TGGATGGAAGGAACCT (sugars k4 d9 k3, PS) |  | 3% | 44% | 36% |  |  |
| TTATGAAATTATTGGT (sugars kkddddkekekkdddd, PS) | 63 |  |  |  |  |  |
| CTTTATACCAGTGTCT (sugars kkdddddkekeddddd, PS) | 97 | 41% | 74% | 92% | 14 |  |
| CAGTACAGAGCAGGAT (sugars k4 d9 k3, PS) |  | 59% | 82% | 94% |  |  |
| ATTCTCATGGTACAGG (sugars k4 d9 k3, PS) |  | 49% and 50% | 83% and 84% | 94% and 93% | 24 |  |
| TAATTCTATTAGAGGG (sugars kkddddkekekddddd, PS) | 34 |  |  |  |  |  |
| CGTCAATATATTCTTT (sugars kkkddddkekekdddd, PS) | 94 | 55% | 84% | 93% | 25 |  |
| GTTATATTTGATCCTC (sugars kkddddkekekkdddd, PS) | 43 |  |  |  |  |  |
| ATTCTATTAGAGGGCT (sugars kkddddkdkdkddddd, PS) | 74 |  |  |  |  |  |
| TATTTCTTGATGTGGT (sugars kkdddddkekeddddd, PS) | 99 | 59% | 87% | 96% | 10 |  |
| TGTTATCCTCAAGCTC (sugars k4 d9 k3, PS) |  | 37% and 17% |  |  |  |  |
| CAGATGGGTACTTCTG (sugars kkddddkekekkdddd, PS) | 10 |  |  |  |  |  |
